Source: the NIST ThermoML archive (doi:10.1016/j.tca.2013.08.031)
Numbers after ± are expanded uncertainties.

Assay: molar heat capacity at constant volume
Conditions: Fluid (supercritical or subcritical phases), Vacuum adiabatic calorimetry

CCC(C)O (stereo unspecified) [butan-2-ol]
Conditions	molar heat capacity at constant volume [J/K/mol]
533.36 K, Mass density=301.19 kg/m3	394.33 ± 3.7
533.36 K, Mass density=347.06 kg/m3	375.06 ± 3.7
533.36 K, Mass density=474.07 kg/m3	196.42 ± 2.2
533.54 K, Mass density=184.89 kg/m3	510.48 ± 5.7
533.54 K, Mass density=198.25 kg/m3	497.8 ± 5
533.54 K, Mass density=245.67 kg/m3	452.07 ± 4.5
533.54 K, Mass density=284.93 kg/m3	412.49 ± 4.2
533.54 K, Mass density=286.65 kg/m3	422.42 ± 4.2
533.54 K, Mass density=301.19 kg/m3	399.52 ± 3.7
533.54 K, Mass density=347.06 kg/m3	375.06 ± 3.7
533.54 K, Mass density=474.07 kg/m3	196.42 ± 2.2
533.68 K, Mass density=286.65 kg/m3	420.64 ± 4.2
533.72 K, Mass density=184.89 kg/m3	467.11 ± 5.4
533.72 K, Mass density=198.25 kg/m3	506.55 ± 5.1
533.72 K, Mass density=245.67 kg/m3	456.07 ± 4.6
533.72 K, Mass density=284.93 kg/m3	412.86 ± 4.2
533.72 K, Mass density=301.19 kg/m3	403.96 ± 4.4
533.72 K, Mass density=347.06 kg/m3	377.28 ± 3.7
533.74 K, Mass density=184.89 kg/m3	332.58 ± 4.3
533.76 K, Mass density=184.89 kg/m3	294.56 ± 4
533.78 K, Mass density=184.89 kg/m3	303.68 ± 4.1
533.8 K, Mass density=184.89 kg/m3	307.31 ± 4.1
533.81 K, Mass density=184.89 kg/m3	283.59 ± 3.9
533.91 K, Mass density=198.25 kg/m3	508.47 ± 5.3
533.91 K, Mass density=245.67 kg/m3	462 ± 4.7
533.91 K, Mass density=284.93 kg/m3	414.71 ± 4.2
533.91 K, Mass density=286.65 kg/m3	429.46 ± 4.3
533.91 K, Mass density=301.19 kg/m3	408.41 ± 4.4
533.91 K, Mass density=347.06 kg/m3	375.06 ± 3.7
534.09 K, Mass density=198.25 kg/m3	520.78 ± 5.5
534.09 K, Mass density=245.67 kg/m3	460.22 ± 4.7
534.09 K, Mass density=279.19 kg/m3	425.38 ± 4.3
534.09 K, Mass density=284.93 kg/m3	420.86 ± 4.2
534.09 K, Mass density=301.19 kg/m3	412.12 ± 4.4
534.09 K, Mass density=347.06 kg/m3	382.47 ± 4.4
534.27 K, Mass density=198.25 kg/m3	538.57 ± 6.2
534.27 K, Mass density=245.67 kg/m3	465.85 ± 4.7
534.27 K, Mass density=279.19 kg/m3	430.42 ± 4.4
534.27 K, Mass density=284.93 kg/m3	420.42 ± 4.2
534.27 K, Mass density=286.65 kg/m3	436.5 ± 4.4
534.27 K, Mass density=347.06 kg/m3	387.66 ± 4.4
534.46 K, Mass density=198.25 kg/m3	527.82 ± 6
534.46 K, Mass density=245.67 kg/m3	472.82 ± 4.8
534.46 K, Mass density=279.19 kg/m3	435.09 ± 4.4
534.46 K, Mass density=284.93 kg/m3	425.75 ± 4.3
534.46 K, Mass density=286.65 kg/m3	439.47 ± 4.4
534.46 K, Mass density=301.19 kg/m3	418.79 ± 4.4
534.46 K, Mass density=347.06 kg/m3	400.26 ± 4.4
534.64 K, Mass density=184.89 kg/m3	279.36 ± 2.8
534.64 K, Mass density=198.25 kg/m3	354.23 ± 4.5
534.64 K, Mass density=245.67 kg/m3	484.53 ± 4.9
534.64 K, Mass density=276.45 kg/m3	433.39 ± 4.4
534.64 K, Mass density=279.19 kg/m3	437.91 ± 4.4
534.64 K, Mass density=284.93 kg/m3	426.57 ± 4.3
534.64 K, Mass density=301.19 kg/m3	421.75 ± 4.4
534.64 K, Mass density=347.06 kg/m3	353.56 ± 3.7
534.64 K, Mass density=403.55 kg/m3	223.85 ± 2.2
534.82 K, Mass density=198.25 kg/m3	329.47 ± 4.2
534.82 K, Mass density=245.67 kg/m3	491.43 ± 5
534.82 K, Mass density=276.45 kg/m3	435.91 ± 4.5
534.82 K, Mass density=279.19 kg/m3	441.54 ± 4.5
534.82 K, Mass density=284.93 kg/m3	430.13 ± 4.4
534.82 K, Mass density=301.19 kg/m3	429.16 ± 4.4
534.82 K, Mass density=347.06 kg/m3	246.08 ± 3
534.82 K, Mass density=403.55 kg/m3	223.11 ± 2.2
535.01 K, Mass density=198.25 kg/m3	313.31 ± 4.7
535.01 K, Mass density=245.67 kg/m3	498.39 ± 5.2
535.01 K, Mass density=276.45 kg/m3	443.47 ± 4.8
535.01 K, Mass density=284.93 kg/m3	435.02 ± 4.4
535.01 K, Mass density=301.19 kg/m3	431.39 ± 4.4
535.01 K, Mass density=347.06 kg/m3	242.38 ± 3
535.01 K, Mass density=403.55 kg/m3	225.33 ± 2.2
535.19 K, Mass density=198.25 kg/m3	319.91 ± 4.7
535.19 K, Mass density=245.67 kg/m3	508.62 ± 5.1
535.19 K, Mass density=276.45 kg/m3	453.85 ± 5.3
535.19 K, Mass density=279.19 kg/m3	457.11 ± 4.7
535.19 K, Mass density=284.93 kg/m3	440.21 ± 4.6
535.19 K, Mass density=301.19 kg/m3	440.28 ± 4.4
535.19 K, Mass density=347.06 kg/m3	243.12 ± 3
535.19 K, Mass density=403.55 kg/m3	223.11 ± 2.2
535.37 K, Mass density=184.89 kg/m3	286.33 ± 2.9
535.37 K, Mass density=198.25 kg/m3	301.3 ± 3.2
535.37 K, Mass density=245.67 kg/m3	516.03 ± 5.6
535.37 K, Mass density=276.45 kg/m3	460.59 ± 4.8
535.37 K, Mass density=279.19 kg/m3	465.85 ± 4.7
535.37 K, Mass density=284.93 kg/m3	441.02 ± 4.8
535.37 K, Mass density=286.65 kg/m3	467.56 ± 4.9
535.37 K, Mass density=301.19 kg/m3	445.47 ± 5.2
535.37 K, Mass density=403.55 kg/m3	219.4 ± 2.2
535.55 K, Mass density=184.89 kg/m3	286.55 ± 2.9
535.55 K, Mass density=245.67 kg/m3	535.08 ± 5.8
535.55 K, Mass density=276.45 kg/m3	474.75 ± 5
535.55 K, Mass density=279.19 kg/m3	472.08 ± 5.1
535.55 K, Mass density=284.93 kg/m3	454.96 ± 5
535.55 K, Mass density=286.65 kg/m3	474.38 ± 4.9
535.55 K, Mass density=301.19 kg/m3	458.07 ± 5.2
535.55 K, Mass density=347.06 kg/m3	243.12 ± 2.2
535.55 K, Mass density=403.55 kg/m3	220.88 ± 2.2
535.74 K, Mass density=198.25 kg/m3	286.33 ± 3
535.74 K, Mass density=245.67 kg/m3	563.92 ± 6.2
535.74 K, Mass density=276.45 kg/m3	489.72 ± 5.3
535.74 K, Mass density=279.19 kg/m3	488.09 ± 5.1
535.74 K, Mass density=284.93 kg/m3	470.52 ± 5.2
535.74 K, Mass density=286.65 kg/m3	487.57 ± 6.7
535.74 K, Mass density=301.19 kg/m3	477.34 ± 5.2
535.74 K, Mass density=347.06 kg/m3	249.05 ± 2.2
